The record followed here is PubChem BioAssay AID1996.

Converted amounts (≈) assume the structure as drawn. Some results are limits rather than exact numbers.

The conditions of this data set: buffer; pH 7.4; 200.0 µM.
Broadly, the kinetic solubility is solubility judged after dilution from a stock solution rather than from solid. Molecule `Cc1c(C=N)c(O)n(C)c(=O)c1C#N` registered a solubility (kinetic) of over 28.7 µg/mL.
For `CC(NC(=O)c1ccc(Br)o1)c1ccccc1` (stereo not given), the kinetic solubility is 35.8 µg/mL (≈ 122 µM).
Then `COc1cccc2c(Cl)c(CCCl)c(C)nc12`, with 1.1 µg/mL (≈ 4.07 µM); and `Cc1onc(-c2ccccc2)c1C(=O)NCc1cccc(Cl)c1`, with 1.1 µg/mL (≈ 3.37 µM).
The molecule `O=C(COC(=O)C1=COCCO1)Nc1cc(Cl)c(Cl)cc1Cl` registered a kinetic solubility of 5.3 µg/mL (≈ 14.5 µM). Against the preceding molecule, the solubility kinetic is about 4.8-fold higher.
Then `CC1CCCN(CC(O)COCc2ccc3c(c2)OCO3)C1.Cl` (stereo not given), with 39 µg/mL; and `CC1(C)CC2(C)OC(=N)C1(C#N)C2(C#N)C#N` (stereo not given), with 34 µg/mL (≈ 149 µM).
The value for `O=C(COc1ccc(F)cc1Br)NCCCN1CCCC1=O` was over 56 µg/mL; that for `O=C(COC(=O)Cc1ccc([N+](=O)[O-])cc1)NC1CCCCCC1` was over 50.2 µg/mL.
The value for `CCc1ccc(NC(=S)N2CCCC(C(F)(F)F)C2)cc1` (stereo not given) was 6.1 µg/mL (≈ 19.3 µM); that for `CCCCn1c(=O)[nH]c2nc3cc(NC(C)=O)ccc3nc2c1=O` was 2.3 µg/mL (≈ 7.03 µM).
With `COc1ccc(NC(=S)NC(=O)/C=C/c2ccco2)cc1`, the kinetic solubility came to 1.2 µg/mL (≈ 3.97 µM).
The value for `Cc1ccc(C(=O)N2CCCCC2C(=O)O)cc1S(=O)(=O)N1CCCCC1` (stereo not given) was over 59.2 µg/mL.
The value for `COc1cccc(C(=O)NOCc2ccc(C)cc2)c1OC` was over 45.2 µg/mL; that for `COc1ccc(C(=O)C[N+]2(C)CCOCC2)cc1.[I-]` was over 37.5 µg/mL.
The value for `Cc1cccc(C(=O)N2CCCC(c3nc(-c4ccc(C)o4)no3)C2)c1` (stereo not given) was 47.7 µg/mL (≈ 136 µM); that for `CCNC(=O)c1ccccc1SCC(=O)Nc1ccc(F)cc1` was over 49.9 µg/mL.
For `O=C(Nn1cnc2ccccc2c1=O)c1c(F)cccc1F`, the solubility (kinetic) is over 45.2 µg/mL.
Then `COc1cccc(NC(=O)NCc2ccccn2)c1`, with over 38.6 µg/mL; and `N/C(=N\OC(=O)c1cccnc1)c1ccccc1Cl`, with 38.9 µg/mL (≈ 141 µM); and `CC(=O)N1CCCc2cc(S(=O)(=O)N3CCCC3)ccc21`, with over 46.3 µg/mL.
With `COc1cccc(CNC(=O)CCN2C(=S)NC(C)(C)CC2C)c1` (stereo not given), the solubility (kinetic) is over 52.4 µg/mL.
Then `COc1ccc(Br)cc1CN1CCCCCC1`, with 37.4 µg/mL (≈ 125 µM).
Then `C[C@@H]1NC(=O)/C(=C\c2ccccc2Br)NC1=O`, with 13.1 µg/mL (≈ 44.4 µM); and `Cc1oncc1C(=O)Nc1cccc2ccccc12`, with 34 µg/mL (≈ 135 µM); and `Cc1ccccc1-c1noc(C(C)NC(=O)c2ccco2)n1` (stereo not given), with 37.5 µg/mL (≈ 126 µM).
Then `O=CN1CCN(C(=O)c2cccc([N+](=O)[O-])c2)CC1`, with over 39.5 µg/mL; and `CC(C)N(CCn1cnc2c([nH]c3ccccc32)c1=O)C(C)C`, with 24.5 µg/mL (≈ 78.4 µM); and `Cc1csc(SCC(=O)Nc2nncs2)n1`, with over 40.9 µg/mL.
`CCSc1c([N+](=O)[O-])c(=O)n(-c2ccccc2)c2ccccc12` came in with a solubility (kinetic) of 1.3 µg/mL (≈ 3.98 µM).
Then `COc1cc(OC)c(C2Nc3cccc4cccc(c34)N2)c(OC)c1`, with 4.4 µg/mL (≈ 13.1 µM); and `O=C(CCNC(=O)c1ccco1)Nc1ccccc1`, with over 38.7 µg/mL; and `CCCCNC(=O)[C@@H]1CSC2c3ccccc3C(=O)N21` (stereo not given in full), with over 43.6 µg/mL.
For the molecule `CC(C)(C)NC(=O)NC(=O)CN1CCCCCCC1`, the kinetic solubility worked out at 21.2 µg/mL (≈ 78.7 µM).
The value for `CC(CCc1ccccc1)NC(=O)C1CCC1` (stereo not given) was over 34.7 µg/mL.
Then `CCC(OCC(O)CN1CCCCC1)c1ccccc1.Cl` (stereo not given), with over 47.1 µg/mL.
Then `N#Cc1ccc(CSc2nc(N)cc(=O)[nH]2)cc1`, with over 38.7 µg/mL.
For the molecule `Cc1cc(SCC(=O)NCC2CCCO2)nc2ccccc12` (stereo not given), the solubility (kinetic) is over 47.5 µg/mL.
Then `CCOC(=O)C(=O)N(CC)C1CCS(=O)(=O)C1` (stereo not given), with over 39.5 µg/mL; and `O=C(CN1C(=O)COc2ccc(Cl)cc21)NC1CC1`, with over 42.1 µg/mL.
Then `COc1ccc(NC(=O)COc2ccc3c(c2)OCO3)cc1`, with 39.5 µg/mL (≈ 131 µM); and `Cc1ccsc1/C=C(\C#N)C(=O)NCCCN1CCOCC1`, with 45.7 µg/mL (≈ 143 µM); and `COc1ccc(CC(=O)O/N=C(\N)c2ccccn2)cc1`, with over 42.8 µg/mL.
The value for `c1cc2c(cc1NC1CCCCCC1)OCO2` was 5.9 µg/mL (≈ 25.3 µM); that for `C=CCn1cc(C=C2C(=O)NC(=O)NC2=O)c2ccccc21` was 3.6 µg/mL (≈ 12.2 µM).
Turning to `CCn1c(=O)n(CC)c2cc(NC(=O)c3ccccc3Cl)ccc21`, the kinetic solubility was determined as 50.4 µg/mL (≈ 147 µM).
The value for `Cc1ccccc1NC(=O)N1CCC(C(=O)c2ccc(F)cc2)CC1` was 33.4 µg/mL (≈ 98.1 µM).
Then `O=C(CNC(=O)C1CCCCC1)OCC(=O)c1cccc(Cl)c1`, with 46.8 µg/mL (≈ 139 µM); and `CCOC(=O)Cc1csc(NC(=O)Nc2ccc(Cl)cc2)n1`, with 1.3 µg/mL (≈ 3.83 µM); and `O=C(CSc1nc2ccccc2c(=O)n1-c1ccccc1F)N1CCOCC1`, with 54.3 µg/mL (≈ 136 µM).
Then `Cc1onc(-c2c(F)cccc2Cl)c1C(=O)N=C(N)N1CCCC1`, with 5 µg/mL (≈ 14.3 µM).
In the case of `Cc1c(C(=O)OCC(=O)N2C(C)CCCC2C)oc2ccccc12` (stereo not given), the solubility (kinetic) amounted to 44.1 µg/mL (≈ 134 µM).
In the case of `Fc1ccc(NCc2nnc3n2CCCCC3)cc1`, the kinetic solubility is over 39 µg/mL.
Then `CCOC(=O)c1c(C)n(C(C)C)c2ccc(OC)cc12`, with 15.1 µg/mL (≈ 54.8 µM); and `O=C(CN1CCCCC1)Nc1scc2c1c(=O)oc1ccccc12`, with under 0.4 µg/mL; and `CN(C)c1ccc(CNc2ccccn2)cc1`, with 22.3 µg/mL (≈ 98.1 µM).
Then `CCCc1nnc(SCC(=O)N(CC)CC)n1CC1CCCO1` (stereo not given), with over 51.1 µg/mL; and `Cc1ccc(S(=O)(=O)N2CCN(c3ccccc3)CC2)c(C)c1`, with 3 µg/mL (≈ 9.08 µM); and `O=S(=O)(c1cc(Cl)ccc1Cl)N1CCc2ccccc21`, with under 0.7 µg/mL.
`C[n+]1c(-c2ccccc2)sc2ccccc21.[O-][Cl+3]([O-])([O-])[O-]`: the solubility (kinetic) is over 48.9 µg/mL.
Then `CN(c1ccccc1)S(=O)(=O)c1cccc(NC(=O)C2CCCO2)c1` (stereo not given), with over 54.1 µg/mL; and `CC(C(=O)OCC(=O)c1ccccc1)N1C(=O)C2C3CCC(C3)C2C1=O` (stereo not given), with over 53.3 µg/mL; and `CCOC(=O)CSc1nc(C)cc(C)c1C(N)=O`, with 35.6 µg/mL (≈ 133 µM).
Then `COc1ccc(C(=O)N2CCCc3ccccc32)cc1Br`, with 26.4 µg/mL (≈ 76.3 µM); and `O=C(COC(=O)c1cccnc1Cl)NCc1ccc(F)cc1`, with over 48.4 µg/mL.
The value for `CCOc1ccc(S(=O)(=O)NCC2CCCO2)c2ccccc12` (stereo not given) was 42.2 µg/mL (≈ 126 µM).
`CN(Cc1ccc(F)cc1)C(=O)CNC(=O)C1CCCCC1` displayed a solubility (kinetic) of over 46 µg/mL.
Then `COC(=O)c1cc(S(=O)(=O)N2CCCCC2C)c[nH]1` (stereo not given), with over 43 µg/mL.
The value for `Cc1cc(Cl)cc(C)c1OCCNCc1ccccc1.O=C(O)C(=O)O` was 44.5 µg/mL; that for `COC(=O)c1ccc(C(=O)OC)c(NC(=S)N2CCCC2)c1` was 9.6 µg/mL (≈ 29.8 µM).
The value for `Cn1c(=O)c2c(O)c(C=Nc3ccc(F)cc3)c(=O)n(C)c2n(C)c1=O` was 32.6 µg/mL (≈ 91 µM); that for `Cc1csc(=O)n1CCC(=O)N(C)Cc1c(F)cccc1Cl` was over 51.4 µg/mL.
On to `S=C(NCc1ccc(Cl)c(Cl)c1)NCc1ccco1`, for which the kinetic solubility was determined as 23.1 µg/mL (≈ 73.3 µM).
The value for `Cc1ccc(C)c(NC(=S)N(C)C)c1` was over 31.2 µg/mL.
Then `Cc1nc(/C(N)=N/OC(=O)c2ccc(Cl)cc2)c(C(F)(F)F)o1`, with 17 µg/mL (≈ 48.9 µM); and `COc1ccc(/C=N/N2CCOCC2)cc1Cn1cc([N+](=O)[O-])cn1`, with over 51.8 µg/mL; and `COc1ccccc1NC(=O)COC(=O)c1cn(C)c2ccccc12`, with 1.5 µg/mL (≈ 4.43 µM).
Then `COc1ccc(C(C)(C)C)cc1NC(=O)COC(=O)CN1C(=O)NC2(CCCCC2C)C1=O` (stereo not given), with 38 µg/mL (≈ 82.7 µM); and `COc1cccc(NC(=O)CN(C)CC(=O)NCC(=O)Nc2ccc(F)cc2)c1`, with over 60.4 µg/mL.
`CCc1ccc2[nH]c(=O)c(Cc3ccccc3)c(O)c2c1` yielded a kinetic solubility of over 41.9 µg/mL.
The value for `COC(=O)c1c(C)[nH]c(C(=O)OCC(=O)NC(C)(C)C)c1C` was over 46.6 µg/mL.
Molecule `CCc1nc(N=C(N)N)nc2ccccc12` returned a kinetic solubility of 28 µg/mL (≈ 130 µM).
The value for `COc1ccccc1CNC(=S)Nc1ccc(F)cc1` was 12 µg/mL (≈ 41.3 µM); that for `Cc1c(C#N)c2ccccc2n1C` was 19.9 µg/mL (≈ 117 µM); that for `CN(c1ccccc1C(=O)NCc1ccccc1Cl)S(=O)(=O)c1ccccc1` was 31.3 µg/mL (≈ 75.4 µM).
Then `Cc1c(C)n(-c2ccccc2)c2ncnc(NCCCN(C)C)c12`, with over 48.5 µg/mL.
`Clc1ccc(CN2CCC(c3ccccc3)CC2)cc1` returned a solubility (kinetic) of 4.3 µg/mL (≈ 15 µM).
The value for `CCCNC(=O)CSc1nccn1Cc1ccco1` was over 41.9 µg/mL.
Molecule `Cc1oc(C(C)(C)C)c(CN2CCOCC2)c1C(=O)O.Cl` yielded a solubility (kinetic) of over 47.7 µg/mL.
Then `N#Cc1c(Nc2ccccc2)c(C=O)c[nH]c1=O`, with over 35.9 µg/mL; and `Cc1ccc(CSc2nccc(-c3c(C)nc4ccccn34)n2)cc1`, with 1.6 µg/mL (≈ 4.62 µM); and `COc1ccccc1-n1cccc1C=O`, with over 30.2 µg/mL.
The value for `Cc1ccc(Sc2ncccc2O)cc1` was 17.4 µg/mL (≈ 80.1 µM); that for `COC(=O)CN1C(=O)COc2ccc(S(=O)(=O)NCc3ccccc3)cc21` was 58.3 µg/mL (≈ 149 µM).
With `Oc1ccccc1-c1nc(NC2CCCC2)c2ccccc2n1`, the kinetic solubility was under 0.2 µg/mL.
The value for `CCOC(=O)c1cc2c(ccn2C)n1CC(=O)N1C(C)CCCC1C` (stereo not given) was over 51.8 µg/mL; that for `CC(=O)N1CCCC(C(=O)c2ccc(Oc3ccccc3)cc2)C1` (stereo not given) was over 48.5 µg/mL; that for `N#CC(C#N)=Cc1ccc(N2CCOCC2)cc1` was 4.4 µg/mL (≈ 18.4 µM).
The molecule `O=C(COc1ccccc1)NCCc1cnc[nH]1` registered a kinetic solubility of over 36.8 µg/mL.
The value for `Cc1cccc(C)c1OCC(=O)Nc1ccccc1N1CCCCC1` was under 0.4 µg/mL; that for `COc1ccc(C(=O)CCC(=O)Nc2cccnc2)c(OC)c1` was over 47.2 µg/mL; that for `COc1cc2nc(NC(=O)c3ccc(Cl)cc3)sc(=O)c2cc1OC` was 3.7 µg/mL (≈ 9.82 µM).
Then `CCn1c(=S)[nH]c2cc(Cl)ccc21`, with over 31.9 µg/mL.
Then `Cc1[nH]c(=O)c(C#N)c(C)c1[N+](=O)[O-]`, with 27.3 µg/mL (≈ 141 µM); and `CC(C)C1Oc2ccccc2N(CC(=O)NC2CCCCC2)C1=O` (stereo not given), with over 49.6 µg/mL.
